Legend:
Artemia salina = test: Toxicity against Artemia salina; assay type: organism-based; details: in vivo
Cladosporium cucumerinum [1] = test: Growth inhibition of Cladosporium cucumerinum after 2 to 3 days by bioautographic assay; assay type: functional, organism-based
Cladosporium cucumerinum [2] = test: Antifungal activity against Cladosporium cucumerinum at 1.5 to 50 ug/spot after 2 to 3 days by bioautographic assay; assay type: functional

| SMILES | LC50 (Artemia salina) [ppm] | Activity (Cladosporium cucumerinum [1]) | inhibition zone (IZ) (Cladosporium cucumerinum [2]) [mm] |
| --- | --- | --- | --- |
| C=C(C)CCC[C@]1(C)OC(=O)[C@]23CC=C4[C@@H](CC[C@H]5C(C)(C)[C@@H](O[C@@H]6OC[C@@H](O)[C@H](O)[C@H]6O[C@@H]6O[C@H](C)[C@@H](O[C@@H]7O[C@H](CO)[C@@H](O)[C@H](O[C@@H]8O[C@H](CO)[C@@H](O)[C@H](OC)[C@H]8O)[C@H]7O)[C@H](O)[C@H]6O)CC[C@]45C)[C@]2(C)CC(=O)[C@@H]31 [DESULFATED HEMOIEDEMOSIDE A] | 424.5 | Dose-dependent effect | – |
| C=C(C)CCC[C@]1(C)OC(=O)[C@]23CC=C4[C@@H](CC[C@H]5C(C)(C)[C@@H](O[C@@H]6OC[C@@H](OS(=O)(=O)[O-])[C@H](O)[C@H]6O[C@@H]6O[C@H](C)[C@@H](O[C@@H]7O[C@H](COS(=O)(=O)[O-])[C@@H](O)[C@H](O[C@@H]8O[C@H](CO)[C@@H](O)[C@H](OC)[C@H]8O)[C@H]7O)[C@H](O)[C@H]6O)CC[C@]45C)[C@]2(C)CC(=O)[C@@H]31.[Na+].[Na+] [HEMOIEDEMOSIDE A] | 18.7 | Dose-dependent effect | 8 |
| CO[C@@H]1[C@@H](O)[C@H](O[C@@H]2[C@@H](O)[C@H](O[C@H]3[C@H](O)[C@@H](O)[C@H](O[C@H]4[C@H](O[C@H]5CC[C@]6(C)[C@@H]7C[C@H](O)[C@]89C(=O)O[C@@](C)(CCCC(C)C)[C@@]8(O)CC[C@@]9(C)C7=CC[C@H]6C5(C)C)OC[C@@H](OS(=O)(=O)[O-])[C@@H]4O)O[C@@H]3C)O[C@H](COS(=O)(=O)[O-])[C@H]2O)O[C@H](CO)[C@H]1O.[Na+].[Na+] [PATAGONICOSIDE A] | – | – | 8 |
